Laboratory results from ChEMBL document CHEMBL3885881, “DrugMatrix”.

Organism: Rattus norvegicus
Experiment: DrugMatrix - Regimen: Daily Repeat
Format: toxicity, organism-based, Sprague-Dawley
Set-up: regimen Daily Repeat, gender Male, age 6-8 weeks
Conditions: in vivo, po, route oral GAVAGE, vehicle .5 % CMC
[1] = 83 mg/kg, 72 h, tissue Blood, dose level High, time 3 day
[2] = 83 mg/kg, 72 h, tissue Plasma, dose level High, time 3 day
[3] = 83 mg/kg, 120 h, tissue Blood, dose level High, time 5 day
[4] = 83 mg/kg, 120 h, tissue Plasma, dose level High, time 5 day
[5] = […], 72 h, tissue Blood, dose 8.3 mg/Kg, dose level Low, time 3 day
[6] = […], 72 h, tissue Plasma, dose 8.3 mg/Kg, dose level Low, time 3 day
[7] = […], 120 h, tissue Blood, dose 8.3 mg/Kg, dose level Low, time 5 day
[8] = […], 120 h, tissue Plasma, dose 8.3 mg/Kg, dose level Low, time 5 day

Question: What does the source list for SODIUM ORTHOVANAD?
Answer: ABSOLUTE BASOPHIL [1]: 0 CELLS/uL; ABSOLUTE EOSINOPHIL [1]: 49.33 CELLS/uL; ABSOLUTE LYMPHOCYTE [1]: 13060 CELLS/uL; ABSOLUTE MONOCYTE [1]: 206 CELLS/uL; ABSOLUTE SEGMENTED NEUTROPHIL [1]: 2051.33 CELLS/uL; BASOPHIL [1]: 0%; EOSINOPHIL [1]: 0.33%; ERYTHROCYTE COUNT [1]: 5.99 x10E6/uL; LEUKOCYTE COUNT [1]: 15.37 x10E3/uL; LYMPHOCYTE [1]: 85%; MEAN CORPUSCULAR HEMOGLOBIN [1]: 23.17 pg; MEAN CORPUSCULAR HEMOGLOBIN CONCENTRATION [1]: 37.8 G/DL; NEUTROPHIL [1]: 13.33%; NUCLEATED RED BLOOD CELLS [1]: 0.67 /100WBC; PLATELET COUNT [1]: 1409 x10E3/uL; ALANINE AMINOTRANSFERASE [2]: 51.33 u/L; ALKALINE PHOSPHATASE [2]: 333.67 u/L; ASPARTATE AMINOTRANSFERASE [2]: 81.67 u/L; BLOOD UREA NITROGEN [2]: 13.33 mg/dL; CARBON DIOXIDE [2]: 16.67 mmol/L; CHOLESTEROL [2]: 69 mg/dL; CREATINE PHOSPHOKINASE [2]: 309.33 u/L; CREATININE [2]: 0.2 mg/dL; LACTATE DEHYDROGENASE [2]: 147.67 u/L; LIPASE [2]: 9 u/L; PHOSPHORUS [2]: 10.33 mg/dL; POTASSIUM [2]: 6.71 MEQ/L; SODIUM [2]: 146.67 MEQ/L; TOTAL BILIRUBIN [2]: 0.27 mg/dL; TOTAL PROTEIN [2]: 5.43 G/DL; URIC ACID [2]: 1.8 mg/dL; ABSOLUTE BASOPHIL [3]: 0 CELLS/uL; ABSOLUTE EOSINOPHIL [3]: 42.5 CELLS/uL; ABSOLUTE LYMPHOCYTE [3]: 9180 CELLS/uL; ABSOLUTE MONOCYTE [3]: 133 CELLS/uL; ABSOLUTE SEGMENTED NEUTROPHIL [3]: 1544.5 CELLS/uL; BASOPHIL [3]: 0%; EOSINOPHIL [3]: 0.5%; ERYTHROCYTE COUNT [3]: 6.11 x10E6/uL; HEMATOCRIT [3]: 36.85%; HEMOGLOBIN [3]: 13.8 G/DL; LEUKOCYTE COUNT [3]: 10.9 x10E3/uL; LYMPHOCYTE [3]: 84%; MEAN CORPUSCULAR HEMOGLOBIN [3]: 22.65 pg; MEAN CORPUSCULAR HEMOGLOBIN CONCENTRATION [3]: 37.45 G/DL; MEAN CORPUSCULAR VOLUME [3]: 60.35 fL; MONOCYTE [3]: 1%; NEUTROPHIL [3]: 14.5%; NUCLEATED RED BLOOD CELLS [3]: 0 /100WBC; PLATELET COUNT [3]: 1518 x10E3/uL; ALANINE AMINOTRANSFERASE [4]: 55 u/L; ALBUMIN [4]: 4.2 G/DL; ALKALINE PHOSPHATASE [4]: 268.5 u/L; ASPARTATE AMINOTRANSFERASE [4]: 90 u/L; BLOOD UREA NITROGEN [4]: 15.5 mg/dL; CARBON DIOXIDE [4]: 32.5 mmol/L; CHOLESTEROL [4]: 82 mg/dL; CREATINE PHOSPHOKINASE [4]: 294.5 u/L; CREATININE [4]: 0.22 mg/dL; LACTATE DEHYDROGENASE [4]: 221.5 u/L; LIPASE [4]: 14 u/L; POTASSIUM [4]: 6.81 MEQ/L; SODIUM [4]: 147.35 MEQ/L; TOTAL BILIRUBIN [4]: 0.15 mg/dL; TOTAL PROTEIN [4]: 6 G/DL; URIC ACID [4]: 1.65 mg/dL; ABSOLUTE BASOPHIL [5]: 0 CELLS/uL; ABSOLUTE EOSINOPHIL [5]: 0 CELLS/uL; ABSOLUTE MONOCYTE [5]: 61 CELLS/uL; ABSOLUTE SEGMENTED NEUTROPHIL [5]: 1531 CELLS/uL; BASOPHIL [5]: 0%; EOSINOPHIL [5]: 0%; ERYTHROCYTE COUNT [5]: 5.33 x10E6/uL; HEMATOCRIT [5]: 34.23%; HEMOGLOBIN [5]: 13.1 G/DL; LEUKOCYTE COUNT [5]: 14.33 x10E3/uL; LYMPHOCYTE [5]: 89%; MEAN CORPUSCULAR HEMOGLOBIN [5]: 24.6 pg; MEAN CORPUSCULAR HEMOGLOBIN CONCENTRATION [5]: 38.27 G/DL; MONOCYTE [5]: 0.33%; NEUTROPHIL [5]: 10.67%; NUCLEATED RED BLOOD CELLS [5]: 0 /100WBC; PLATELET COUNT [5]: 1191.67 x10E3/uL; ALANINE AMINOTRANSFERASE [6]: 51 u/L; ALBUMIN [6]: 4.1 G/DL; ALKALINE PHOSPHATASE [6]: 345.67 u/L; ASPARTATE AMINOTRANSFERASE [6]: 90.67 u/L; BLOOD UREA NITROGEN [6]: 12.67 mg/dL; CARBON DIOXIDE [6]: 22 mmol/L; CHLORIDE [6]: 108.67 MEQ/L; CHOLESTEROL [6]: 71.67 mg/dL; CREATINE PHOSPHOKINASE [6]: 295.67 u/L; CREATININE [6]: 0.21 mg/dL; LACTATE DEHYDROGENASE [6]: 309 u/L; LIPASE [6]: 11 u/L; PHOSPHORUS [6]: 11.73 mg/dL; POTASSIUM [6]: 6.03 MEQ/L; TOTAL BILIRUBIN [6]: 0.2 mg/dL; TOTAL PROTEIN [6]: 5.73 G/DL; URIC ACID [6]: 1.3 mg/dL; ABSOLUTE BASOPHIL [7]: 0 CELLS/uL; ABSOLUTE EOSINOPHIL [7]: 0 CELLS/uL; ABSOLUTE LYMPHOCYTE [7]: 10049 CELLS/uL; ABSOLUTE MONOCYTE [7]: 38 CELLS/uL; ABSOLUTE SEGMENTED NEUTROPHIL [7]: 579.67 CELLS/uL; BASOPHIL [7]: 0%; EOSINOPHIL [7]: 0%; ERYTHROCYTE COUNT [7]: 5.74 x10E6/uL; HEMATOCRIT [7]: 36.57%; LEUKOCYTE COUNT [7]: 10.67 x10E3/uL; LYMPHOCYTE [7]: 94.33%; MEAN CORPUSCULAR HEMOGLOBIN [7]: 23.4 pg; MEAN CORPUSCULAR HEMOGLOBIN CONCENTRATION [7]: 36.67 G/DL; MONOCYTE [7]: 0.33%; NEUTROPHIL [7]: 5.33%; NUCLEATED RED BLOOD CELLS [7]: 0.33 /100WBC; PLATELET COUNT [7]: 1343.67 x10E3/uL; ALANINE AMINOTRANSFERASE [8]: 63.33 u/L; ALKALINE PHOSPHATASE [8]: 318 u/L; ASPARTATE AMINOTRANSFERASE [8]: 80 u/L; CARBON DIOXIDE [8]: 24 mmol/L; CHOLESTEROL [8]: 69.33 mg/dL; CREATINE PHOSPHOKINASE [8]: 250 u/L; CREATININE [8]: 0.18 mg/dL; GLUCOSE [8]: 176.33 mg/dL; LACTATE DEHYDROGENASE [8]: 93.33 u/L; POTASSIUM [8]: 6.41 MEQ/L; SODIUM [8]: 147.03 MEQ/L; TOTAL BILIRUBIN [8]: 0.27 mg/dL; TOTAL PROTEIN [8]: 6.2 G/DL; URIC ACID [8]: 2.1 mg/dL
